Ki data for 25 molecules are collected here from ChEMBL document CHEMBL1129075, “Synthesis and binding activity of some pyrazolo[1,5-c]quinazolines as tools to verify an optional binding site of a benzodiazepine receptor ligand” (J Med Chem, 1996).

The first assay relates to GABA-A receptor; anion channel. The assay can be described thus: Displacement of [3H]flunitrazepam at GABA-A benzodiazepine receptor in rat brain cortical membranes (insoluble). It is filed as cell membranes, Membrane.
For orientation: Ki means a measure of affinity in units of concentration, obtained from inhibition or displacement. A low value points to a stronger hold on the target. For the molecule `Oc1nc2ccccc2c2cc(-c3nnco3)nn12`, the Ki entry is on record as “Insoluble”.

Another assay deals with GABA-A receptor; anion channel. The assay can be described thus: Displacement of [3H]flunitrazepam at GABA-A benzodiazepine receptor in rat brain cortical membranes. In kind it is cell membranes, Membrane. (In general: Displacement assays read how much labelled ligand stays bound in the presence of the test substance.)
With `Cc1nnc(-c2cc3c4ccccc4nc(O)n3n2)o1`, affinity was put at a Ki of 4590 nM.

`CCOC(=O)c1cc2c3ccccc3n(C)c(=O)n2n1` came in with a Ki of over 10000 nM.

For the molecule `CCOC(=O)c1cc2c(cn1)[nH]c1ccccc12`, the Ki is 4.5 nM.

With `Oc1nc2ccc(Cl)cc2c2cc(-c3ccccc3)nn12`, the Ki was 105 nM.

Take `CCOC(=O)c1cc2n(n1)CNc1ccccc1-2`: the Ki worked out at 70 nM.

With `CCOC(=O)c1cc2c3cc(Cl)ccc3nc(O)n2n1`, the affinity corresponds to a Ki of 50 nM.

The molecule `CCOC(=O)c1cc2c3ccccc3n(CC)c(=O)n2n1` had a Ki of over 10000 nM.

For the molecule `Cn1c(=O)n2nc(-c3ccccc3)cc2c2ccccc21`, the Ki was over 10000 nM.

With `O=C(O)c1cc2c3ccccc3nc(O)n2n1`, the Ki is over 10000 nM.

For `CCOC(=O)c1cc2c3ccccc3nc(S)n2n1`, the Ki worked out at 3290 nM.

In turn, `O=C(Oc1ccccc1)c1cc2c3ccccc3nc(O)n2n1` yielded a Ki of 3150 nM.

`Oc1nc2ccccc2c2cc(-c3ccccn3)nn12` came in with an inhibition constant Ki of 53 nM.

`CCOC(=O)c1cc2c3ccccc3ncn2n1` came in with a Ki of over 10000 nM.

Molecule `Sc1nc2ccccc2c2cc(-c3ccccc3)nn12` displayed a Ki of over 10000 nM.

The molecule `Oc1nc2ccc(Cl)cc2c2cc(-c3ccco3)nn12` showed a Ki of 41 nM.

As to `COC(=O)c1cc2c3ccccc3[nH]c(=O)n2n1`, affinity was put at a Ki of 22 nM.

For `Oc1nc2ccccc2c2cc(-c3ccccc3)nn12`, affinity was put at a Ki of 59 nM.

In the case of `Oc1nc2ccccc2c2cc(-c3ccc(Cl)cc3)nn12`, affinity was put at a Ki of 5300 nM.

As for `Oc1nc2ccccc2c2cc(-c3cccs3)nn12`, the affinity, expressed as Ki, was 7.4 nM.

Consider `c1ccc(-c2cc3c4ccccc4ncn3n2)cc1`, for which the Ki was over 10000 nM.

As to `Oc1nc2ccccc2c2cc(-c3ccco3)nn12`, the Ki stood at 16 nM.

Take `c1ccc(-c2cc3n(n2)CNc2ccccc2-3)cc1`: the affinity, expressed as Ki, was 6570 nM.

As for `CC(C)OC(=O)c1cc2c3ccccc3nc(O)n2n1`, the Ki turned out to be 434 nM.

As to `CCOC(=O)c1cc2c3ccccc3[nH]c(=O)n2n1`, the affinity corresponds to a Ki of 28 nM.
